Test results reported in ChEMBL document CHEMBL1909046, “DrugMatrix in vitro pharmacology data”.

How the values were obtained:
[1] = DRUGMATRIX: Purinergic P2X radioligand binding (ligand: [3H] alpha, beta-Methylene-ATP); type: cell membranes, Oryctolagus cuniculus, New Zealand albino, Urinary bladder, Membrane; conditions: Not Active = under 50% inhibition at 10 µM
[2] = target: C-C chemokine receptor type 2 (Homo sapiens, UniProt P41597); type: cell membranes, CHO-K1, Membrane; conditions: cho-k1; also: in other assays of this panel Not Active means under 50% inhibition at 10 µM
[3] = DRUGMATRIX: Calcium Channel Type L, Phenylalkylamine radioligand binding (ligand: [3H] (-)-Desmethoxyverapamil (D-888)); type: cell membranes, Rattus norvegicus, Wistar, Brain, Membrane; conditions: Not Active = under 50% inhibition at 10 µM
[4] = target: T1, Muscarinic acetylcholine receptor M5 (Homo sapiens, UniProt P08912); type: cell membranes, CHO-K1, Membrane; conditions: cho-k1; also: in other assays of this panel Not Active means under 50% inhibition at 10 µM
T1 sequence (P08912 whole entry): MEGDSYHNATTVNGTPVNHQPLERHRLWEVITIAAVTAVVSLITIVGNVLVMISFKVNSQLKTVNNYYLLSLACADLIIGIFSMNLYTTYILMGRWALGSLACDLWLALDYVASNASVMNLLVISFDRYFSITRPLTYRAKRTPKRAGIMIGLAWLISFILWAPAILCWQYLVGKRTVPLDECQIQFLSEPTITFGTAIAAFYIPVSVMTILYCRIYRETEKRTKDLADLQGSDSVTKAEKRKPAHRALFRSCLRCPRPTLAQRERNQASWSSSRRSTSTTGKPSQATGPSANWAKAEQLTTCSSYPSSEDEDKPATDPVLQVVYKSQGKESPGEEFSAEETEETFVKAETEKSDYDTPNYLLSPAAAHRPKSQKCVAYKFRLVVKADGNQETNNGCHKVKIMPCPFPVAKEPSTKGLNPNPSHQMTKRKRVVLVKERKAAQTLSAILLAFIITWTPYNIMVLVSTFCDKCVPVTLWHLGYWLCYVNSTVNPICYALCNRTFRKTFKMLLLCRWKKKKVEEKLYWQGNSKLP

[5] = target: Cytochrome P450 2C9 (Homo sapiens, UniProt P11712); conditions: bti-tn-5b1-4; also: in other assays of this panel Not Active means under 50% inhibition at 10 µM
[6] = target: T2, Alpha-1B adrenergic receptor (Rattus norvegicus, UniProt P15823); experiment: DRUGMATRIX: Alpha-1B adrenergic receptor radioligand binding (ligand: prazosin); type: cell membranes, Wistar, Liver, Membrane; conditions: Not Active = under 50% inhibition at 10 µM
T2 sequence (P15823 whole entry): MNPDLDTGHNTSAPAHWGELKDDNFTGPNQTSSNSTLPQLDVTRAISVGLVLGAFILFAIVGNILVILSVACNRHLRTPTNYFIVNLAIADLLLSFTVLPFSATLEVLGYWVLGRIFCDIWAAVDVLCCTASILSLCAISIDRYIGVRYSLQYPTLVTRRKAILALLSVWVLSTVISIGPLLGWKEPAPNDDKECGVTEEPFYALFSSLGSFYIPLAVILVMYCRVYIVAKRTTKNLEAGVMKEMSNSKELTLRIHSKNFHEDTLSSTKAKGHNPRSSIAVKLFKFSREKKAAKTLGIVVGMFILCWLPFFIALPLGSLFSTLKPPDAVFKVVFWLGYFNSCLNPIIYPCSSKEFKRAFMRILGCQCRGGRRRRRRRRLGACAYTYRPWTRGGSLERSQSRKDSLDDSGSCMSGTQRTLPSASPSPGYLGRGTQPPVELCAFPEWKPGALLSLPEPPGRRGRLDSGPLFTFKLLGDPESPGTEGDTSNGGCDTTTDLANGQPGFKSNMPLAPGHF

[7] = target: Insulin receptor (Rattus norvegicus, UniProt P15127); type: cell membranes, Wistar, Liver, Membrane; also: in other assays of this panel Not Active means under 50% inhibition at 10 µM
[8] = target: T3, Amine oxidase [flavin-containing] A (Homo sapiens, UniProt P21397); experiment: DRUGMATRIX: Monoamine Oxidase MAO-A enzyme inhibition (substrate: Kynuramine); design: species or system BTI-TN-5B1-4; conditions: bti-tn-5b1-4; Not Active = under 50% inhibition at 10 µM
T3 sequence (P21397 whole entry): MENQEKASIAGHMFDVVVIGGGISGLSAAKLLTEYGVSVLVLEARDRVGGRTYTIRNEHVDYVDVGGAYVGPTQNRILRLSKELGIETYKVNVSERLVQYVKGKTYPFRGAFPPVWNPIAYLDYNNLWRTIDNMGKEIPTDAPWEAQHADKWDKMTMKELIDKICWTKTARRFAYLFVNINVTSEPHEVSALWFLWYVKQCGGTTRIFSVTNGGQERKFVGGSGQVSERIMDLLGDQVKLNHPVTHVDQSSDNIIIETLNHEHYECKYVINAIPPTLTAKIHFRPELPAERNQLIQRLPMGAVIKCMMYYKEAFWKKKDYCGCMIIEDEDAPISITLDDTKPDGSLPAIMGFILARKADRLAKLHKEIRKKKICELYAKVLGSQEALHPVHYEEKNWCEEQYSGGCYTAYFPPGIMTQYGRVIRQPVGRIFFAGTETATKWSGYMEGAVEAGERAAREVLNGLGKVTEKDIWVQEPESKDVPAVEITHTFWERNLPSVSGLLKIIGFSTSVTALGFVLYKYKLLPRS

Insulin receptor, sequence (P15127 27-759 limits assumed): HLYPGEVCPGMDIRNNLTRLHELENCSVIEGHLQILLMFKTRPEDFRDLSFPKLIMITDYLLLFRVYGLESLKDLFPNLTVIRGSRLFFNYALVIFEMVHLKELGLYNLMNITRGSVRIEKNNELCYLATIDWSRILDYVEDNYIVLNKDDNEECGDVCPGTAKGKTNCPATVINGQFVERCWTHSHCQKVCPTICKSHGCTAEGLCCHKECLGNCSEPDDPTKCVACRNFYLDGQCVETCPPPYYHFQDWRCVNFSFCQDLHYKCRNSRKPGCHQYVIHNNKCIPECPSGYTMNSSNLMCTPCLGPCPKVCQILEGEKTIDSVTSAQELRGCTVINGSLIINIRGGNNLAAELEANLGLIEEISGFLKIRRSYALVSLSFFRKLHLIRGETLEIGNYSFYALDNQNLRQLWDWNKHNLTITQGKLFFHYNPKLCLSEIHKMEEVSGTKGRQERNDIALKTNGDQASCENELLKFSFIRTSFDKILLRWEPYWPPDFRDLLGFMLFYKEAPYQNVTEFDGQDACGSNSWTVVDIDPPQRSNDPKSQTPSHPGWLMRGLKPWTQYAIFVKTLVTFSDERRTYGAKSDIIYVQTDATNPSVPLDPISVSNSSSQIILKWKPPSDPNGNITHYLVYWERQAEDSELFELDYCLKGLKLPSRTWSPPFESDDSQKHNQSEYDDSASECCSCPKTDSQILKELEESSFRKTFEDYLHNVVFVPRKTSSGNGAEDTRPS
Insulin receptor, sequence (P15127 764-1383 limits assumed): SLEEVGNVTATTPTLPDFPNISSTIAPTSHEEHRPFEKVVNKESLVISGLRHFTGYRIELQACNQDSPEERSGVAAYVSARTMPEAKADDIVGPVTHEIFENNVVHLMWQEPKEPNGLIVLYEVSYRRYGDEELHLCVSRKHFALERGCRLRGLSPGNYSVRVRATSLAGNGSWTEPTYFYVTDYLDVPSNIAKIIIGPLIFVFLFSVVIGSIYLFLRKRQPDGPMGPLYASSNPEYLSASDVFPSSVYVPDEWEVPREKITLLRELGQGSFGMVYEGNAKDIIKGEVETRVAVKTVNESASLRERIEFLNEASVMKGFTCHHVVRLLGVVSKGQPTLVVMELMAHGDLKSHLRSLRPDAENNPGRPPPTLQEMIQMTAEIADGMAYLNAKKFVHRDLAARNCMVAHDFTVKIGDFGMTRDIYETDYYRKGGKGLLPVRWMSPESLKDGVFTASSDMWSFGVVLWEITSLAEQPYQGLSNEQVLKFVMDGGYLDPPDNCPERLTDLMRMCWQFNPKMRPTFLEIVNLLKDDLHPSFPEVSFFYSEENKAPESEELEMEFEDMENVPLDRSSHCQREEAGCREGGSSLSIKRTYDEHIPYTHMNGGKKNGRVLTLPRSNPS
Cytochrome P450 2C9, sequence (P11712 whole entry): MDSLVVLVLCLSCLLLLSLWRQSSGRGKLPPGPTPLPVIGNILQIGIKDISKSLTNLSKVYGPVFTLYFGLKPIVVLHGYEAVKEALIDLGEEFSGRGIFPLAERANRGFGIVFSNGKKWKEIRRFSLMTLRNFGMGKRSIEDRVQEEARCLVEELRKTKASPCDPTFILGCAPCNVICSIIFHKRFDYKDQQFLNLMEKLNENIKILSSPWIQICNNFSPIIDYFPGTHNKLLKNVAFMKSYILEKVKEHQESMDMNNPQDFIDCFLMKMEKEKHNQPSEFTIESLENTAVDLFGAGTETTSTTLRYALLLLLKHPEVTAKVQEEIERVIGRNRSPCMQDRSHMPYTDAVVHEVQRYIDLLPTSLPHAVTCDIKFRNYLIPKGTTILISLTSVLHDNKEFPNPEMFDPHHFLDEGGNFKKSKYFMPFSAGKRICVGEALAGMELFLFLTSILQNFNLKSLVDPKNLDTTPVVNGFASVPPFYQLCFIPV
C-C chemokine receptor type 2, sequence (P41597 whole entry): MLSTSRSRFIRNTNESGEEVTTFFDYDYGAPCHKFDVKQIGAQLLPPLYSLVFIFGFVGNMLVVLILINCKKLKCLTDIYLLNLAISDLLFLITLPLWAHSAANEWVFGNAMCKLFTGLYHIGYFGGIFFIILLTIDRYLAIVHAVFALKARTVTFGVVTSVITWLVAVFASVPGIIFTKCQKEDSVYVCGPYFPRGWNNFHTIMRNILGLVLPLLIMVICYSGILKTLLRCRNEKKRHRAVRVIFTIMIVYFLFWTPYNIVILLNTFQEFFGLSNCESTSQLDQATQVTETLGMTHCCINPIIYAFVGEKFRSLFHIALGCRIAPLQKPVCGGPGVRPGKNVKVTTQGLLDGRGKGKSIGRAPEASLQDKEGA

Cc1cc(C)nc(NS(=O)(=O)c2ccc(N)cc2)n1 [SULFAMETHAZINE]
Not Active: IC50 [1] | Ki [1] | Ki [2] | IC50 [3] | Ki [3] | IC50 [4] | IC50 [5] | Ki [5] | IC50 [6] | IC50 [7] | IC50 [8]

C[C@]1(Cn2ccnn2)[C@H](C(=O)O)N2C(=O)C[C@H]2S1(=O)=O [TAZOBACTAM]
Not Active: IC50 [1] | Ki [1] | IC50 [2] | IC50 [3] | Ki [3] | IC50 [4] | IC50 [5] | Ki [5] | IC50 [6] | IC50 [7] | IC50 [8]

CN1C(C(=O)Nc2ccccn2)=C(O)c2sccc2S1(=O)=O [TENOXICAM]
Not Active: IC50 [1] | Ki [1] | IC50 [2] | IC50 [3] | Ki [3] | IC50 [4] | IC50 [5] | Ki [5] | IC50 [6] | IC50 [7] | IC50 [8]

O=C1CCC(N2C(=O)c3ccccc3C2=O)C(=O)N1 (stereo unspecified) [THALIDOMIDE]
Not Active: IC50 [1] | Ki [1] | IC50 [2] | IC50 [3] | Ki [3] | IC50 [4] | IC50 [5] | Ki [5] | IC50 [6] | IC50 [7] | IC50 [8]

Cc1cccc(Nc2ccncc2S(=O)(=O)NC(=O)NC(C)C)c1 [TORSEMIDE]
Not Active: IC50 [1] | Ki [1] | IC50 [2] | IC50 [3] | Ki [3] | IC50 [4] | IC50 [5] | Ki [5] | IC50 [6] | IC50 [7] | IC50 [8]

CC(C)C[C@H](NC(=O)[C@@H](O)[C@H](N)Cc1ccccc1)C(=O)O [UBENIMEX]
Not Active: IC50 [1] | Ki [1] | IC50 [2] | IC50 [3] | Ki [3] | IC50 [4] | IC50 [5] | Ki [5] | IC50 [6] | IC50 [7] | IC50 [8]

Cc1onc(-c2ccccc2)c1-c1ccc(S(N)(=O)=O)cc1 [VALDECOXIB]
Not Active: IC50 [1] | Ki [1] | IC50 [2] | IC50 [3] | Ki [3] | IC50 [4] | IC50 [5] | Ki [5] | IC50 [6] | IC50 [7] | IC50 [8]

CC[C@]1(O)C[C@@H]2CN(CCc3c([nH]c4ccccc34)[C@@](C(=O)OC)(c3cc4c(cc3OC)N(C)[C@H]3[C@@](O)(C(=O)OC)[C@H](OC(C)=O)[C@]5(CC)C=CCN6CC[C@]43[C@@H]65)C2)C1 [VINBLASTINE]
Not Active: IC50 [1] | Ki [1] | IC50 [2] | IC50 [3] | Ki [3] | IC50 [4] | IC50 [5] | Ki [5] | IC50 [6] | IC50 [7] | IC50 [8]

CC(=O)CC(c1ccccc1)c1c(O)c2ccccc2oc1=O (stereo unspecified) [WARFARIN]
Not Active: IC50 [1] | Ki [1] | IC50 [2] | IC50 [3] | Ki [3] | IC50 [4] | IC50 [5] | Ki [5] | IC50 [6] | IC50 [7] | IC50 [8]

C[C@@H](N)[C@H]1CC[C@H](C(=O)Nc2ccncc2)CC1 [Y-27632]
Not Active: IC50 [1] | Ki [1] | IC50 [2] | IC50 [3] | Ki [3] | IC50 [4] | IC50 [5] | Ki [5] | IC50 [6] | IC50 [7] | IC50 [8]

[Cl-].[Cl-].[Zn+2] [ZINC CHLORIDE]
Not Active: IC50 [1] | Ki [1] | IC50 [2] | IC50 [3] | Ki [3] | IC50 [4] | IC50 [5] | Ki [5] | IC50 [6] | IC50 [7] | IC50 [8]
